# From PubChem BioAssay (NCI)
# Several values for one entry are separate records, joined by “and”; a condition that tells them apart may be missing. Equal values may be shown once.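 A five-concentration, 48-hour dose response in 96-well plates underlies each endpoint, interpolated linearly between surrounding concentrations. Here, GI50 denotes the concentration required for 50% inhibition of growth. TGI is the concentration that stops growth completely.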
# What was measured:
# Assay in all cases: NCI-60 cell line screen, 48 h
# DLD-1 colon = test system: DLD-1 colon
# DMS 114 small cell lung = test system: DMS 114 small cell lung
# DMS 273 small cell lung = test system: DMS 273 small cell lung
# KM20L2 colon = test system: KM20L2 colon
# LXFL 529 NSCLC = test system: LXFL 529 NSCLC
# M19-MEL melanoma = test system: M19-MEL melanoma
# SK-MEL-28 melanoma = test system: SK-MEL-28 melanoma
# SNB-78 CNS = test system: SNB-78 CNS
# XF 498 CNS = test system: XF 498 CNS
# HOP-18 NSCLC = test system: HOP-18 NSCLC
# MDA-N = test system: MDA-N
compound,measurement,setting,value
CCOc1ccccc1NC(=O)CC1C(=O)Nc2ccccc2S1=O (configuration not stated),TGI,DLD-1 colon,> 100 µM
same,TGI,DMS 114 small cell lung,> 100 µM
same,TGI,DMS 273 small cell lung,> 100 µM
same,TGI,KM20L2 colon,> 100 µM
same,TGI,LXFL 529 NSCLC,> 100 µM
same,TGI,M19-MEL melanoma,> 100 µM
same,TGI,SK-MEL-28 melanoma,> 100 µM
same,TGI,SNB-78 CNS,> 100 µM
same,TGI,XF 498 CNS,> 100 µM
CN1N=CSC12C(=O)N(c1ccc(Cl)cc1)C(=O)N2c1ccc(Cl)cc1 (configuration not stated),TGI,DLD-1 colon,> 100 µM
same,TGI,HOP-18 NSCLC,69.7 µM
same,TGI,KM20L2 colon,> 100 µM
same,TGI,LXFL 529 NSCLC,> 100 µM
same,TGI,M19-MEL melanoma,> 100 µM
same,TGI,SK-MEL-28 melanoma,> 100 µM
same,TGI,SNB-78 CNS,> 100 µM
CC[C@]1(O)CC(OC2CC(N(C)C)C(O)C(C)O2)c2c(cc3c(c2O)C(=O)c2c(O)cccc2C3=O)[C@@H]1C(=O)OC (some centres not stated),TGI,MDA-N,1.92 µM
same,TGI,SK-MEL-28 melanoma,3.04 µM
COc1cc(C2c3[nH]c4ccccc4c3C[C@H]3COC(=O)N23)cc(OC)c1OC (some centres not stated),TGI,MDA-N,0.0492 µM
COc1ccccc1/C=C(\C#N)c1ccccc1,TGI,DLD-1 colon,> 100 µM
same,TGI,DMS 114 small cell lung,46.2 µM
same,TGI,DMS 273 small cell lung,50 µM
same,TGI,HOP-18 NSCLC,> 100 µM
same,TGI,KM20L2 colon,> 100 µM
same,TGI,LXFL 529 NSCLC,> 100 µM
same,TGI,M19-MEL melanoma,> 100 µM
same,TGI,SK-MEL-28 melanoma,> 100 µM
same,TGI,SNB-78 CNS,> 100 µM
O=C(Nc1ccccc1-c1n[nH]c(=S)[nH]c1=O)C(F)(F)F,TGI,DLD-1 colon,> 100 µM
same,TGI,DMS 114 small cell lung,> 100 µM
same,TGI,DMS 273 small cell lung,> 100 µM
same,TGI,LXFL 529 NSCLC,> 100 µM
same,TGI,M19-MEL melanoma,> 100 µM
same,TGI,SK-MEL-28 melanoma,> 100 µM
same,TGI,SNB-78 CNS,> 100 µM
same,TGI,XF 498 CNS,> 100 µM
CC1(C)N=C(N)N=C(N)N1c1cccc(CCCCc2cccc(S(=O)(=O)F)c2)c1,GI50,SK-MEL-28 melanoma,4.1 µM
same,TGI,SK-MEL-28 melanoma,21.7 µM
N#Cc1ccccc1NC(=O)/C(=N\N)C(C(=O)c1ccncc1)C1OC(=O)c2ccccc21 (configuration not stated),TGI,KM20L2 colon,> 100 µM
same,TGI,LXFL 529 NSCLC,> 100 µM
same,TGI,M19-MEL melanoma,> 100 µM
same,TGI,SK-MEL-28 melanoma,> 100 µM
same,TGI,XF 498 CNS,> 100 µM
Cc1cccc(NC(=O)CCc2ccc(N3C(N)=NC(N)=NC3(C)C)cc2)c1,GI50,SK-MEL-28 melanoma,11.8 µM
same,TGI,SK-MEL-28 melanoma,> 100 µM
COc1cccc(C2c3cc4c(cc3OC(C)(N3CCCC3)C2C)OCO4)c1OC (configuration not stated),TGI,MDA-N,34.7 µM
same,TGI,SK-MEL-28 melanoma,> 100 µM
COc1ccc(C2CC(c3cc(OC)c(OC)c(OC)c3)=NO2)cc1OCCCCOc1cc2c(cc1OC)C(=O)N1CCC[C@H]1C=N2 (some centres not stated),GI50,SK-MEL-28 melanoma,2.07 µM
same,TGI,SK-MEL-28 melanoma,4.1 µM
CC(=O)N[C@@H](Cc1ccc(OP(=O)(O)O)cc1)C(=O)N[C@H]1CCC(=O)N2CCC[C@@H](C(=O)NCc3ccc(Cl)cc3)N2C1=O,GI50,SK-MEL-28 melanoma,> 25 µM
same,TGI,SK-MEL-28 melanoma,> 25 µM
N#Cc1c(-c2ccccc2)nc(SCC2CO2)nc1N1CCOCC1 (configuration not stated),GI50,SK-MEL-28 melanoma,5.11 µM
same,TGI,SK-MEL-28 melanoma,76.5 µM
CCN1CCN(Cc2ccc(-c3cc4c(N[C@H](C)c5ccccc5)ncnc4[nH]3)cc2)CC1,GI50,SK-MEL-28 melanoma,1.96 µM and 1.98 µM
same,TGI,SK-MEL-28 melanoma,3.93 µM and 4.26 µM
Clc1ccc(CSC(Cn2ccnc2)c2ccc(Cl)cc2Cl)cc1 (configuration not stated),GI50,SK-MEL-28 melanoma,1.69 µM
same,TGI,SK-MEL-28 melanoma,3.06 µM
C/C(CN1C(=O)c2ccccc2C1=O)=N\NS(=O)(=O)c1ccc(C)cc1,TGI,DLD-1 colon,> 100 µM
same,TGI,DMS 273 small cell lung,> 100 µM
same,TGI,HOP-18 NSCLC,> 100 µM
same,TGI,KM20L2 colon,> 100 µM
same,TGI,LXFL 529 NSCLC,> 100 µM
same,TGI,M19-MEL melanoma,> 100 µM
same,TGI,SNB-78 CNS,> 100 µM
NCCNc1c2c(c(NCCN)c3c(CO)c[nH]c13)C(=O)c1ccccc1C2=O,GI50,SK-MEL-28 melanoma,24.5 µM
same,TGI,SK-MEL-28 melanoma,> 100 µM
N=C(N)c1ccc(OCc2cccc(COc3ccc(C(=N)N)cc3)c2)cc1,GI50,SK-MEL-28 melanoma,5.15 µM
same,TGI,SK-MEL-28 melanoma,29.1 µM
C=CC[n+]1c(/C=C/C=C2\N(C)c3ccccc3C2(C)C)sc2ccc(OC)cc21,GI50,SK-MEL-28 melanoma,0.464 µM
same,TGI,SK-MEL-28 melanoma,4.79 µM
CCOC(=O)c1ccc2[nH]c(-c3ccc(S(=O)(=O)F)cc3)cc(=O)c2c1,TGI,MDA-N,> 100 µM
same,TGI,SK-MEL-28 melanoma,> 100 µM
Cc1ccc([N+](=O)[O-])cc1NC(=O)Nc1cccc(F)c1,GI50,SK-MEL-28 melanoma,19.8 µM
same,TGI,SK-MEL-28 melanoma,> 100 µM
CN1C(=O)CC(c2cccc(C3CC(=O)N(C)C3=O)n2)C1=O (configuration not stated),TGI,DLD-1 colon,> 100 µM
same,TGI,DMS 114 small cell lung,> 100 µM
same,TGI,DMS 273 small cell lung,> 100 µM
same,TGI,HOP-18 NSCLC,> 100 µM
same,TGI,KM20L2 colon,> 100 µM
same,TGI,LXFL 529 NSCLC,> 100 µM
same,TGI,M19-MEL melanoma,> 100 µM
same,TGI,SK-MEL-28 melanoma,> 100 µM
same,TGI,SNB-78 CNS,> 100 µM
C[C@@H]1COCCN1c1cc(C2([S@](C)(=N)=O)CC2)nc(-c2ccnc3[nH]ccc23)n1,GI50,SK-MEL-28 melanoma,10.9 µM and > 10 µM
same,TGI,SK-MEL-28 melanoma,> 79.7 µM
Nc1c(C(=O)c2cccc(CCCN3CCOCC3)c2)cnn1-c1ccc(F)cc1,GI50,SK-MEL-28 melanoma,> 25 µM
same,TGI,SK-MEL-28 melanoma,> 25 µM
